B1: HNF4a: Hepatocyte Nuclear Factor α (NR2A1), cDNA driver (protein, UniProt P41235 1-474, looked up)
Hepatocyte nuclear factor …: MRLSKTLVDMDMADYSAALDPAYTTLEFENVQVLTMGNDTSPSEGTNLNAPNSLGVSALCAICGDRATGKHYGASSCDGCKGFFRRSVRKNHMYSCRFSRQCVVDKDKRNQCRYCRLKKCFRAGMKKEAVQNERDRISTRRSSYEDSSLPSINALLQAEVLSRQITSPVSGINGDIRAKKIASIADVCESMKEQLLVLVEWAKYIPAFCELPLDDQVALLRAHAGEHLLLGATKRSMVFKDVLLLGNDYIVPRHCPELAEMSRVSIRILDELVLPFQELQIDDNEYAYLKAIIFFDPDAKGLSDPGKIKRLRSQVQVSLEDYINDRQYDSRGRFGELLLLLPTLQSITWQMIEQIQFIKLFGMAKIDNLLQEMLLGGSPSDAPHAHHPLHPHLMQEHMGTNVIVANTMPTHLSNGQMCEWPRPRGQAATPETPQPSPPGGSGSEPYKLLPGAVATIVKPLSAIPQPTITKQEVI
B2: LXRb: Liver X Receptor β (NR1H2), cDNA driver (protein, UniProt P55055 1-460, looked up)
Oxysterols receptor LXR-beta: MSSPTTSSLDTPLPGNGPPQPGAPSSSPTVKEEGPEPWPGGPDPDVPGTDEASSACSTDWVIPDPEEEPERKRKKGPAPKMLGHELCRVCGDKASGFHYNVLSCEGCKGFFRRSVVRGGARRYACRGGGTCQMDAFMRRKCQQCRLRKCKEAGMREQCVLSEEQIRKKKIRKQQQESQSQSQSPVGPQGSSSSASGPGASPGGSEAGSQGSGEGEGVQLTAAQELMIQQLVAAQLQCNKRSFSDQPKVTPWPLGADPQSRDARQQRFAHFTELAIISVQEIVDFAKQVPGFLQLGREDQIALLKASTIEIMLLETARRYNHETECITFLKDFTYSKDDFHRAGLQVEFINPIFEFSRAMRRLGLDDAEYALLIAINIFSADRPNVQEPGRVEALQQPYVEALLSYTRIKRPQDQLRFPRMLMKLVSLRTLSSVHSEQVFALRLQDKKLPPLLSEIWDVHE

How the values were obtained:
[1] = test system: mAdiponectin promoter; test: NHR-promoter luciferase screen, mAdiponectin promoter; type: cell-based, mouse; conditions: for Luc. act., normalized to lacZ / Normalized Luc. act., normalized to control: Adiponectin, HR component without or with its ligand; for mAdiponectin promoter reporter activity: transcription factor +/- ligand, control = 1.00
Method: (§1) The use, feasibility, and reproducibility of the functional NHR-promoter screen in a 48-well format have been tested validated. Briefly, there were co-expressed 50 ng of each NHR/NHR homodimer or NHR/RXR heterodimer with 100 ng promoter/luciferase construct and 50 ng of LacZ (as a control for transfection efficiency) in CV-1 cells using Fugene HD (Roche) as a transfection reagent (alternatively or additionally, a CMV-YFP construct can be used as a transfection control). Each of the nuclear hormone receptors that were used in these experiments was cloned into a pcDNA3.1 vector and comprised a C-terminally linked V5H6 tag. Twenty-four hours after transfection, appropriate ligands were added, where applicable, (see Table 5 for various ligands and concentrations and after 48 hrs, samples were assayed for luciferase and LacZ activity. To measure for luciferase activity 15 ul of sample was added to 30 ul of luciferase buffer (20 mM tricine, 1.07 mM MgCarbonate, 2.67 mM MgSulfate, 0.1 mM Naz-EDTA, 5 mM DTT, 5 mM ATP, 0.15 mg/ml CoA, 0.5 mM Luciferin), mixed briefly, and run in a Perkin Elmer Victor 5 luminometer. Thus, the functional NHR-promoter screen was used to observe the transcriptional activity of 29 promoters from various physiological pathways including inflammation, lipid and sugar metabolism, cholesterol transport, xenobiotic metabolism, and circadian rhythm.
(§2) The promoters that facilitate transcription of the indicated gene products that were tested using the protocols described herein are listed in the first row of the table. The nuclear hormone receptors and, where applicable, ligands that were assayed for their transcriptional effects on the promoters are listed in the first column of the table. The data represent the luciferase activity of each sample normalized to both the lacZ activity of that sample and to a control, e.g., no NHR or ligand, as customary in the art. As described previously, these normalizations allow the transcriptional activity of each reporter cell to be compared to other samples.
(§3) Tables 7-40 show the transcriptional effects of the hormone receptors, and, where applicable, ligands (orphan receptors are screened without ligand), on each individual promoter. […] The control data of each table are shown in their last rows.

[2] = test system: mAgrp promoter; test: NHR-promoter luciferase screen, mAgrp promoter; type: cell-based, mouse; conditions: for Results of assays of transcription factor (+/- ligand) with mAgrp: Table 6d, luciferase activity relative to control (control = 1.00); for Luc. act., normalized to lacZ / Normalized Luc. act., normalized to control: mAgrp promoter, HR component with or without ligand; for Normalized Luc. act., normalized to control: relative to control
Method: as §1, §2, §3

[3] = test system: Bmal1 promoter; test: NHR-promoter luciferase screen, Bmal1 promoter; type: cell-based, mouse; conditions: for Luc. act., normalized to lacZ / Normalized Luc. act., normalized to control: Bmal1 promoter, HR component without or with ligand; for mBmal1 promoter reporter activity: transcription factor +/- ligand, control = 1.00
Method: as §1, §2, §3

[4] = test system: mPer1 promoter; test: NHR-promoter luciferase screen, mPer1 promoter; type: cell-based, mouse; conditions: for Luc. act., normalized to lacZ / Normalized Luc. act., normalized to control: Per1 promoter reporter, co-transfected HR, with or without its ligand; for Normalized Luc. act., normalized to control: relative to control; for luciferase activity normalized to lacZ activity and to a control, mPer1: mPer1 promoter-luciferase, CV-1 cells, NHR +/- ligand, control = 1.00
Method: as §1, §2, §3

[5] = test system: mDio1 promoter; test: NHR-promoter luciferase screen, mDio1 promoter; type: cell-based, mouse; conditions: for Luc. act., normalized to lacZ / Normalized Luc. act., normalized to control: Dio1, HR component without or with its ligand; for mDio1 promoter reporter activity: transcription factor +/- ligand, control = 1.00
Method: as §1, §2, §3

[6] = test system: hMyoD promoter; test: NHR-promoter luciferase screen, hMyoD promoter; type: cell-based, human; conditions: for Luc. act., normalized to lacZ / Normalized Luc. act., normalized to control: MyoD promoter reporter, co-transfected HR, without or with its ligand; for Normalized Luc. act., normalized to control: relative to control; for luciferase activity normalized to lacZ activity and to a control, hMyoD: hMyoD promoter-luciferase, CV-1 cells, NHR +/- ligand, control = 1.00
Method: as §1, §2, §3

Molecule	Luc. act., normalized to lacZ [1]	Normalized Luc. act., normalized to control [1]	mAdiponectin promoter reporter activity [1]	Results of assays of transcription factor (+/- ligand) with mAgrp [2]	Luc. act., normalized to lacZ [2]	Normalized Luc. act., normalized to control [2]	Luc. act., normalized to lacZ [3]	Normalized Luc. act., normalized to control [3]	mBmal1 promoter reporter activity [3]	Luc. act., normalized to lacZ [4]	Normalized Luc. act., normalized to control [4]	luciferase activity normalized to lacZ activity and to a control, mPer1 [4]	Luc. act., normalized to lacZ [5]	Normalized Luc. act., normalized to control [5]	mDio1 promoter reporter activity [5]	Luc. act., normalized to lacZ [6]	Normalized Luc. act., normalized to control [6]	luciferase activity normalized to lacZ activity and to a control, hMyoD [6]
RXRa: Retinoic X Receptor α (NR2B1), cDNA driver	57.3	0.9	0.91	1.17	46.4	1.2	11.8	0.8	0.75	75.8	0.5	0.53	5.5	1.2	1.24	51.2	0.8	0.81
SF-1: Steroidogenic Factor 1 (NR5A1, SF1), cDNA driver	35.0	0.6	0.56	3.58	141.9	3.6	11.4	0.7	0.73	536.5	3.7	3.73	19.8	4.5	4.45	151.2	2.4	2.39
TLX: Tailless (homolog of drosophila) (NR2E1), cDNA driver	78.4	1.2	1.25	0.82	32.4	0.8	12.2	0.8	0.78	217.6	1.5	1.51	8.4	1.9	1.88	31.3	0.5	0.49
VDR: Vitamin D Receptor (NR1I1), cDNA driver	57.4	0.9	0.91	1.14	45.3	1.1	22.0	1.4	1.40	97.1	0.7	0.67	7.6	1.7	1.71	52.8	0.8	0.83
B1	25.4	0.4	0.40	0.91	36.1	0.9	10.1	0.6	0.65	93.1	0.6	0.65	10.0	2.3	2.25	65.5	1.0	1.03
B2	61.7	1.0	0.98	0.78	31.0	0.8	17.4	1.1	1.11	117.6	0.8	0.82	9.8	2.2	2.19	54.6	0.9	0.86
